# How the values were obtained:
# Htt-110Q-Halo [1] = test: Two-color imaging of Htt-110Q-Halo in HEK293T cells; type: cell-based, human; settings: control
# From the text: (§1) (B-C) Excitation and emission spectra of 4 (with misfolded oligomers of SOD1-A4V-Halo) and 5 (with insoluble aggregates of SOD1-A4V-Halo).
# (§2) Combination of 4 and 5 enables a two-color imaging strategy to differentiate insoluble aggregates from soluble oligomers. The inventors carried out live cell imaging experiments, wherein 4 or 5 was used to visualize aggregation of POI-Halo fusion proteins in HEK293T cells. […] To this end, the inventors labeled HEK293T cells expressing SOD1-A4V-Halo simultaneously with 4 and 5 (both at 0.5 μM) for 24 h and treated cells with 5 μM MG132 for 8 h. […] The inventors further carried out experiments using Htt-PolyQ with 110 glutamine repeats (Htt-110Q-Halo).
# Htt-110Q-Halo [2] = target: T1, Htt-110Q-Halo (Homo sapiens, UniProt P42858); test: as above; type: cell-based
# T1 construct: using the Huntingtin exon 1 protein (Htt) with expansion of a polyglutamine tract within its N-terminal domain; expressed in transfected cells; host or cells: HEK293T
# T1 sequence (P42858 with tags, fused parts or gaps): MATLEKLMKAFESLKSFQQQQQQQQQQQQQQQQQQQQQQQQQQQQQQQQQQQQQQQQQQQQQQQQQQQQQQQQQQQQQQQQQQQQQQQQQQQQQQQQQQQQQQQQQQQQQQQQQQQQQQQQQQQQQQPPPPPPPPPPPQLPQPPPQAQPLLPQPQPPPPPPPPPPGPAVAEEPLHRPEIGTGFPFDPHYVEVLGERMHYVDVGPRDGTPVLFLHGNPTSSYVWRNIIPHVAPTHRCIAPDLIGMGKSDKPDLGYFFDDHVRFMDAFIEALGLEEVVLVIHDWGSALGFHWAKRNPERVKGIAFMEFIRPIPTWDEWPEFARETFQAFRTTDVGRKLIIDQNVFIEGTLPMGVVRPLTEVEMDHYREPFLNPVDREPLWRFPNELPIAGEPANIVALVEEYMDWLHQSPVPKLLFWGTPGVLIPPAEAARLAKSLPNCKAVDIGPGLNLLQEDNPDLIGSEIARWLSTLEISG
# From the text: as §1, §2
# SOD1-A4V-Halo [3] = target: T2, SOD1-A4V-Halo (Homo sapiens, UniProt P00441, A5V); test: In vitro heat-induced aggregation of SOD1-A4V-Halo conjugates; type: biochemical
# From the text: as §1
# Target sequence in this assay (P00441 with tags, fused parts or gaps A5V): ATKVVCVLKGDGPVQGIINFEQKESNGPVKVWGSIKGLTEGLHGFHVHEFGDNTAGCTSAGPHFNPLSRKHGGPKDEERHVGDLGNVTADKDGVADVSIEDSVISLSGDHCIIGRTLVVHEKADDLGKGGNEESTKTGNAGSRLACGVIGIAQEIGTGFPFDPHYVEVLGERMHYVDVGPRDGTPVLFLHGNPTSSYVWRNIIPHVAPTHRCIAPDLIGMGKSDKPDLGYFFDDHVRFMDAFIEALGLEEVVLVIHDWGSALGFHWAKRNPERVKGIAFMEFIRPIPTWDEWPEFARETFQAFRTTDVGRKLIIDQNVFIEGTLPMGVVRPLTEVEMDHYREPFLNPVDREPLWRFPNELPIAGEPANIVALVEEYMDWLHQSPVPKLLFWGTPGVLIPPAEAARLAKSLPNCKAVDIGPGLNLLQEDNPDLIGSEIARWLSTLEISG
# The inventors installed Halo-tag reactive warhead to 2, resulting in 5.
# SOD1-A4V-Halo [4] = target: T2, SOD1-A4V-Halo; test: Two-color imaging of SOD1-A4V-Halo in HEK293T cells under MG132; type: cell-based; design: expressed in transfected cells; host or cells: HEK293T; settings: 4 and 5 both at 0.5 μM, 5 μM MG132 for 8 h
# From the text: as §1, §2
# Target sequence in this assay (P00441 with tags, fused parts or gaps A5V limits assumed): as the sequence (P00441 with tags, fused parts or gaps A5V) above
# [5] = 4 with misfolded oligomers, 5 with insoluble aggregates of SOD1-A4V-Halo
smiles,measurement,setting,value
CC1=N/C(=C\c2ccc(N(C)C)cc2)C(=O)N1CC(=O)N[C@H]1CC[C@H](C(=O)NCCOCCOCCCCCCCl)CC1 [Compound 5],fluorescence in cells co-expressing Halo-tag and Htt-110Q-mCherry,Htt-110Q-Halo [1],fluorescence was not observed
same,fluorescence of Htt-110Q-Halo inclusions,Htt-110Q-Halo [2],exhibit fluorescence from both 4 and 5
same,molar extinction coefficient,SOD1-A4V-Halo [3],"23,716 M^−1·cm^−1"
same,Em,SOD1-A4V-Halo [3]; [5],520 nm
same,Ex,SOD1-A4V-Halo [3]; [5],450 nm
same,fluorescence of perinuclear SOD1 A4V-Halo granules,SOD1-A4V-Halo [4],dark fluorescence to a background level
